Experimental data published in the NIST ThermoML archive (doi:10.1021/je2009413).
Numbers after ± are expanded uncertainties.

Experiments:
[1] = osmotic coefficient (dimensionless); mn = molality of the nth substance listed, in mol/kg; conditions: 298.15 K, Liquid, isopiestic method
[2] = mean ionic activity coefficient (dimensionless); mn = molality of the nth substance listed, in mol/kg; conditions: 298.15 K, Liquid, Isopiestic method

CC[N+](CC)(CC)C(C)(C)C [N,N,N-triethyl-2-methyl-2-propanaminium] + O
Conditions | mean ionic activity coefficient, [2] | osmotic coefficient, [1]
m1 = 0.0342 | 0.7642 ± 0.0001 | 0.899 ± 0.0097
m1 = 0.0403 | 0.7444 ± 0.0001 | 0.891 ± 0.0097
m1 = 0.0449 | 0.7306 ± 0.0001 | 0.88 ± 0.0098
m1 = 0.0576 | 0.6966 ± 0.0001 | 0.862 ± 0.0099
m1 = 0.0639 | 0.6816 ± 0.0001 | 0.853 ± 0.01
m1 = 0.0679 | 0.6725 ± 0.0001 | 0.847 ± 0.01
m1 = 0.0754 | 0.6564 ± 0.0001 | 0.841 ± 0.01
m1 = 0.088 | 0.6318 ± 0.0001 | 0.832 ± 0.01
m1 = 0.0953 | 0.6187 ± 0.0001 | 0.82 ± 0.01
m1 = 0.0994 | 0.6116 ± 0.0001 | 0.824 ± 0.01
m1 = 0.1082 | 0.5972 ± 0.0001 | 0.808 ± 0.011
m1 = 0.1645 | 0.5222 ± 0.0001 | 0.771 ± 0.011
m1 = 0.1658 | 0.5208 ± 0.0001 | 0.771 ± 0.011
m1 = 0.195 | 0.4905 ± 0.0001 | 0.75 ± 0.012
m1 = 0.2257 | 0.4629 ± 0.0001 | 0.731 ± 0.012
m1 = 0.2308 | 0.4586 ± 0.0001 | 0.723 ± 0.012
m1 = 0.271 | 0.4282 ± 0.0001 | 0.706 ± 0.013
m1 = 0.3095 | 0.4031 ± 0.0001 | 0.678 ± 0.013
m1 = 0.3407 | 0.3851 ± 0.0001 | 0.671 ± 0.013
m1 = 0.3517 | 0.3792 ± 0.0001 | 0.668 ± 0.013
m1 = 0.383 | 0.3635 ± 0.0001 | 0.651 ± 0.014
m1 = 0.4265 | 0.3439 ± 0.0001 | 0.634 ± 0.014
m1 = 0.4648 | 0.3286 ± 0.0001 | 0.62 ± 0.015
m1 = 0.5151 | 0.3106 ± 0.0001 | 0.604 ± 0.015
m1 = 0.553 | 0.2985 ± 0.0001 | 0.592 ± 0.016
m1 = 0.5917 | 0.2871 ± 0.0001 | 0.584 ± 0.016
m1 = 0.61 | 0.2821 ± 0.0001 | 0.577 ± 0.016
m1 = 0.7078 | 0.2583 ± 0.0001 | 0.554 ± 0.017
m1 = 0.7607 | 0.2473 ± 0.0001 | 0.541 ± 0.018
m1 = 0.8399 | 0.2327 ± 0.0001 | 0.524 ± 0.018
m1 = 0.8805 | 0.2259 ± 0.0001 | 0.52 ± 0.019
m1 = 0.9759 | 0.2118 ± 0.0001 | 0.509 ± 0.019
m1 = 1.08 | 0.1986 ± 0.0001 | 0.49 ± 0.02
m1 = 1.162 | 0.1896 ± 0.0001 | 0.487 ± 0.02
m1 = 1.272 | 0.1791 ± 0.0001 | 0.473 ± 0.02
m1 = 1.391 | 0.1693 ± 0.0001 | 0.459 ± 0.021
m1 = 1.56 | 0.1579 ± 0.0001 | 0.452 ± 0.021
m1 = 1.693 | 0.1504 ± 0.0001 | 0.455 ± 0.021
m1 = 1.771 | 0.1466 ± 0.0001 | 0.449 ± 0.021
m1 = 1.786 | 0.1459 ± 0.0001 | 0.454 ± 0.021
m1 = 1.83 | 0.144 ± 0.0001 | 0.45 ± 0.021
m1 = 1.924 | 0.1401 ± 0.0001 | 0.453 ± 0.021
m1 = 1.99 | 0.1377 ± 0.0001 | 0.451 ± 0.021
m1 = 2.231 | 0.1303 ± 0.0001 | 0.465 ± 0.021

CCCC[N+](CC)(CCCC)CCCC.[I-] [N,N-dibutyl-N-ethyl-1-butanaminium iodide] + O
Conditions | mean ionic activity coefficient, [2] | osmotic coefficient, [1]
m1 = 0.0378 | 0.6891 ± 0.0001 | 0.814 ± 0.011
m1 = 0.0449 | 0.6605 ± 0.0001 | 0.799 ± 0.011
m1 = 0.0501 | 0.6414 ± 0.0001 | 0.789 ± 0.011
m1 = 0.0653 | 0.5922 ± 0.0001 | 0.761 ± 0.011
m1 = 0.0727 | 0.5712 ± 0.0001 | 0.749 ± 0.012
m1 = 0.0776 | 0.5582 ± 0.0001 | 0.741 ± 0.012
m1 = 0.0868 | 0.5355 ± 0.0001 | 0.731 ± 0.012
m1 = 0.1035 | 0.499 ± 0.0001 | 0.707 ± 0.013
m1 = 0.1121 | 0.4824 ± 0.0001 | 0.698 ± 0.013
m1 = 0.1191 | 0.4695 ± 0.0001 | 0.688 ± 0.013
m1 = 0.1288 | 0.4528 ± 0.0001 | 0.679 ± 0.013
m1 = 0.2082 | 0.3515 ± 0.0001 | 0.614 ± 0.015
m1 = 0.2083 | 0.3515 ± 0.0001 | 0.609 ± 0.015
m1 = 0.2503 | 0.3142 ± 0.0001 | 0.584 ± 0.016
m1 = 0.292 | 0.2842 ± 0.0001 | 0.565 ± 0.017
m1 = 0.3027 | 0.2774 ± 0.0001 | 0.551 ± 0.017
m1 = 0.3652 | 0.2431 ± 0.0001 | 0.524 ± 0.018
m1 = 0.4254 | 0.217 ± 0.0001 | 0.493 ± 0.02
m1 = 0.4783 | 0.1981 ± 0.0001 | 0.478 ± 0.02
m1 = 0.498 | 0.1919 ± 0.0001 | 0.471 ± 0.021
m1 = 0.547 | 0.1778 ± 0.0001 | 0.456 ± 0.021
m1 = 0.6197 | 0.1601 ± 0.0001 | 0.436 ± 0.022
m1 = 0.6878 | 0.1461 ± 0.0001 | 0.419 ± 0.022
m1 = 0.7684 | 0.1322 ± 0.0001 | 0.405 ± 0.023
m1 = 0.8453 | 0.1209 ± 0.0001 | 0.388 ± 0.024
m1 = 0.908 | 0.1127 ± 0.0001 | 0.381 ± 0.024
m1 = 0.9478 | 0.108 ± 0.0001 | 0.371 ± 0.024
m1 = 1.128 | 0.09 ± 0.0001 | 0.347 ± 0.025
m1 = 1.231 | 0.0816 ± 0.0001 | 0.335 ± 0.026
m1 = 1.337 | 0.0739 ± 0.0001 | 0.33 ± 0.026
m1 = 1.405 | 0.0695 ± 0.0001 | 0.326 ± 0.026
m1 = 1.548 | 0.0611 ± 0.0001 | 0.321 ± 0.026
m1 = 1.652 | 0.0557 ± 0.0001 | 0.321 ± 0.026
m1 = 1.751 | 0.051 ± 0.0001 | 0.323 ± 0.026
m1 = 1.825 | 0.0478 ± 0.0001 | 0.33 ± 0.026
m1 = 1.91 | 0.0443 ± 0.0001 | 0.334 ± 0.026
m1 = 2.042 | 0.0393 ± 0.0001 | 0.345 ± 0.025
m1 = 2.173 | 0.0349 ± 0.0001 | 0.354 ± 0.025
m1 = 2.216 | 0.0335 ± 0.0001 | 0.359 ± 0.025
m1 = 2.239 | 0.0328 ± 0.0001 | 0.362 ± 0.025
m1 = 2.276 | 0.0317 ± 0.0001 | 0.362 ± 0.025
m1 = 2.339 | 0.0299 ± 0.0001 | 0.372 ± 0.024
m1 = 2.38 | 0.0288 ± 0.0001 | 0.377 ± 0.024
m1 = 2.583 | 0.0236 ± 0.0001 | 0.402 ± 0.023

CCCC[N+](CC)(CC)CCCC.[I-] [N-butyl-N,N-diethylbutan-1-aminium iodide] + O
Conditions | mean ionic activity coefficient, [2] | osmotic coefficient, [1]
m1 = 0.0372 | 0.7064 ± 0.0001 | 0.828 ± 0.01
m1 = 0.0441 | 0.6798 ± 0.0001 | 0.813 ± 0.011
m1 = 0.0491 | 0.6621 ± 0.0001 | 0.805 ± 0.011
m1 = 0.0634 | 0.6174 ± 0.0001 | 0.782 ± 0.011
m1 = 0.0706 | 0.5976 ± 0.0001 | 0.772 ± 0.011
m1 = 0.0749 | 0.5865 ± 0.0001 | 0.768 ± 0.011
m1 = 0.0839 | 0.5647 ± 0.0001 | 0.756 ± 0.011
m1 = 0.0992 | 0.5317 ± 0.0001 | 0.738 ± 0.012
m1 = 0.1069 | 0.5166 ± 0.0001 | 0.731 ± 0.012
m1 = 0.1133 | 0.5048 ± 0.0001 | 0.723 ± 0.012
m1 = 0.1221 | 0.4896 ± 0.0001 | 0.716 ± 0.012
m1 = 0.1938 | 0.3939 ± 0.0001 | 0.654 ± 0.014
m1 = 0.1969 | 0.3912 ± 0.0001 | 0.649 ± 0.014
m1 = 0.2338 | 0.3566 ± 0.0001 | 0.625 ± 0.015
m1 = 0.2705 | 0.3248 ± 0.0001 | 0.61 ± 0.015
m1 = 0.2758 | 0.3213 ± 0.0001 | 0.605 ± 0.015
m1 = 0.3292 | 0.2868 ± 0.0001 | 0.581 ± 0.016
m1 = 0.3751 | 0.2634 ± 0.0001 | 0.559 ± 0.017
m1 = 0.4189 | 0.2415 ± 0.0001 | 0.546 ± 0.018
m1 = 0.4343 | 0.2351 ± 0.0001 | 0.541 ± 0.018
m1 = 0.4687 | 0.2213 ± 0.0001 | 0.532 ± 0.018
m1 = 0.5317 | 0.2037 ± 0.0001 | 0.508 ± 0.019
m1 = 0.58 | 0.1904 ± 0.0001 | 0.497 ± 0.019
m1 = 0.6463 | 0.1748 ± 0.0001 | 0.481 ± 0.02
m1 = 0.7082 | 0.166 ± 0.0001 | 0.463 ± 0.021
m1 = 0.758 | 0.1556 ± 0.0001 | 0.456 ± 0.021
m1 = 0.7808 | 0.1521 ± 0.0001 | 0.451 ± 0.021
m1 = 0.9199 | 0.1348 ± 0.0001 | 0.426 ± 0.022
m1 = 0.9899 | 0.1266 ± 0.0001 | 0.416 ± 0.023
m1 = 1.1 | 0.1171 ± 0.0001 | 0.401 ± 0.023
m1 = 1.178 | 0.1131 ± 0.0001 | 0.389 ± 0.024
m1 = 1.324 | 0.1042 ± 0.0001 | 0.375 ± 0.024
m1 = 1.426 | 0.0988 ± 0.0001 | 0.371 ± 0.024
m1 = 1.548 | 0.0944 ± 0.0001 | 0.366 ± 0.025
m1 = 1.66 | 0.0909 ± 0.0001 | 0.362 ± 0.025
m1 = 1.76 | 0.0885 ± 0.0001 | 0.363 ± 0.025
m1 = 1.926 | 0.0852 ± 0.0001 | 0.366 ± 0.025
m1 = 2.042 | 0.0821 ± 0.0001 | 0.377 ± 0.024
m1 = 2.078 | 0.0809 ± 0.0001 | 0.383 ± 0.024
m1 = 2.108 | 0.0807 ± 0.0001 | 0.384 ± 0.024
m1 = 2.136 | 0.0802 ± 0.0001 | 0.386 ± 0.024
m1 = 2.179 | 0.0789 ± 0.0001 | 0.4 ± 0.023
m1 = 2.218 | 0.0782 ± 0.0001 | 0.405 ± 0.023
m1 = 2.389 | 0.0748 ± 0.0001 | 0.434 ± 0.022
